Measurements reported in ChEMBL document CHEMBL4257449, “New N-(2-phenyl-4-oxo-1,3-thiazolidin-3-yl)-1,2-benzothiazole-3-carboxamides and acetamides as antimicrobial agents” (2017).
In brackets after ≈: the same amount, converted by molar mass.

system: Pseudomonas aeruginosa; experiment: Bactericidal activity against Pseudomonas aeruginosa ATCC 27853 incubated for 24 hrs followed by serial sub-cultivation and measured after 24 hrs by microdilution method; assay type: functional; conditions: not given

Compound	MBC99.5 [×10⁻² umol/ml]
O=C(Cc1nsc2ccccc12)NN1C(=O)CSC1c1c(F)cccc1F (configuration not stated)	37

system: Aspergillus versicolor; experiment: Antifungal activity against Aspergillus versicolor ATCC 11730 after 72 hrs by serial dilution method; assay type: functional; conditions: ATCC 11730, 72 h

MIC [µM]	Compound
74 (≈ 30 µg/mL)	O=C(Cc1nsc2ccccc12)NN1C(=O)CSC1c1c(F)cccc1F (configuration not stated)

system: Aspergillus niger; experiment: Fungicidal activity against Aspergillus niger ATCC 6275 incubated for 72 hrs followed by serial sub-cultivation for 72 hrs and measured after 72 hrs by serial dilution method; assay type: functional; conditions: not given

Compound	MFC99.5 [×10⁻² umol/ml]
O=C(Cc1nsc2ccccc12)NN1C(=O)CSC1c1c(F)cccc1F (configuration not stated)	19.8

system: Aspergillus fumigatus; experiment: Antifungal activity against Aspergillus fumigatus after 72 hrs by serial dilution method; assay type: functional; conditions: not given

MIC [µM]	Compound
296 (≈ 120 µg/mL)	O=C(Cc1nsc2ccccc12)NN1C(=O)CSC1c1c(F)cccc1F (configuration not stated)

system: Salmonella typhimurium; experiment: Antibacterial activity against Salmonella typhimurium ATCC 13311 after 24 hrs by microdilution method; assay type: functional, Salmonella enterica subsp. enterica serovar Typhimurium; conditions: Salmonella enterica, ATCC 13311, 24 h

MIC [µM]	Compound
198 (≈ 80.3 µg/mL)	O=C(Cc1nsc2ccccc12)NN1C(=O)CSC1c1c(F)cccc1F (configuration not stated)

system: Candida albicans; experiment: Antifungal activity against Candida albicans after 72 hrs by serial dilution method; assay type: functional; conditions: not given

MIC [µM]	Compound
99 (≈ 40.1 µg/mL)	O=C(Cc1nsc2ccccc12)NN1C(=O)CSC1c1c(F)cccc1F (configuration not stated)

system: Talaromyces funiculosus; experiment: Fungicidal activity against Penicillium funiculosum ATCC 36839 incubated for 72 hrs followed by serial sub-cultivation for 72 hrs and measured after 72 hrs by serial dilution method; assay type: functional; conditions: not given

Compound	MFC99.5 [×10⁻² umol/ml]
O=C(Cc1nsc2ccccc12)NN1C(=O)CSC1c1c(F)cccc1F (configuration not stated)	9.9

system: Enterobacter cloacae; experiment: Bactericidal activity against Enterobacter cloacae incubated for 24 hrs followed by serial sub-cultivation and measured after 24 hrs by microdilution method; assay type: functional; conditions: not given

Compound	MBC99.5 [×10⁻² umol/ml]
O=C(Cc1nsc2ccccc12)NN1C(=O)CSC1c1c(F)cccc1F (configuration not stated)	37

system: Staphylococcus aureus; experiment: Antibacterial activity against Staphylococcus aureus ATCC 6538 after 24 hrs by microdilution method; assay type: functional; conditions: ATCC 6538, 24 h

MIC [µM]	Compound
198 (≈ 80.3 µg/mL)	O=C(Cc1nsc2ccccc12)NN1C(=O)CSC1c1c(F)cccc1F (configuration not stated)

system: Penicillium ochrochloron; experiment: Fungicidal activity against Penicillium ochrochloron ATCC 9112 incubated for 72 hrs followed by serial sub-cultivation for 72 hrs and measured after 72 hrs by serial dilution method; assay type: functional; conditions: not given

Compound	MFC99.5 [×10⁻² umol/ml]
O=C(Cc1nsc2ccccc12)NN1C(=O)CSC1c1c(F)cccc1F (configuration not stated)	19.8

system: Aspergillus ochraceus; experiment: Antifungal activity against Aspergillus ochraceus ATCC 12066 after 72 hrs by serial dilution method; assay type: functional; conditions: ATCC 12066, 72 h

MIC [µM]	Compound
74 (≈ 30 µg/mL)	O=C(Cc1nsc2ccccc12)NN1C(=O)CSC1c1c(F)cccc1F (configuration not stated)

system: Salmonella typhimurium; experiment: Bactericidal activity against Salmonella typhimurium ATCC 13311 incubated for 24 hrs followed by serial sub-cultivation and measured after 24 hrs by microdilution method; assay type: functional, Salmonella enterica subsp. enterica serovar Typhimurium; conditions: not given

Compound	MBC99.5 [×10⁻² umol/ml]
O=C(Cc1nsc2ccccc12)NN1C(=O)CSC1c1c(F)cccc1F (configuration not stated)	37

system: Escherichia coli; experiment: Antibacterial activity against Escherichia coli ATCC 35210 after 24 hrs by microdilution method; assay type: functional; conditions: ATCC 35210, 24 h

MIC [µM]	Compound
272 (≈ 110 µg/mL)	O=C(Cc1nsc2ccccc12)NN1C(=O)CSC1c1c(F)cccc1F (configuration not stated)

system: Listeria monocytogenes; experiment: Bactericidal activity against Listeria monocytogenes NCTC 7973 incubated for 24 hrs followed by serial sub-cultivation and measured after 24 hrs by microdilution method; assay type: functional; conditions: not given

Compound	MBC99.5 [×10⁻² umol/ml]
O=C(Cc1nsc2ccccc12)NN1C(=O)CSC1c1c(F)cccc1F (configuration not stated)	74

system: Pseudomonas aeruginosa; experiment: Antibacterial activity against Pseudomonas aeruginosa ATCC 27853 after 24 hrs by microdilution method; assay type: functional; conditions: ATCC 27853, 24 h

MIC [µM]	Compound
272 (≈ 110 µg/mL)	O=C(Cc1nsc2ccccc12)NN1C(=O)CSC1c1c(F)cccc1F (configuration not stated)

system: Enterobacter cloacae; experiment: Antibacterial activity against Enterobacter cloacae after 24 hrs by microdilution method; assay type: functional; conditions: not given

MIC [µM]	Compound
198 (≈ 80.3 µg/mL)	O=C(Cc1nsc2ccccc12)NN1C(=O)CSC1c1c(F)cccc1F (configuration not stated)

system: Penicillium ochrochloron; experiment: Antifungal activity against Penicillium ochrochloron ATCC 9112 after 72 hrs by serial dilution method; assay type: functional; conditions: ATCC 9112, 72 h

MIC [µM]	Compound
148 (≈ 60 µg/mL)	O=C(Cc1nsc2ccccc12)NN1C(=O)CSC1c1c(F)cccc1F (configuration not stated)

system: Candida albicans; experiment: Fungicidal activity against Candida albicans incubated for 72 hrs followed by serial sub-cultivation for 72 hrs and measured after 72 hrs by serial dilution method; assay type: functional; conditions: not given

Compound	MFC99.5 [×10⁻² umol/ml]
O=C(Cc1nsc2ccccc12)NN1C(=O)CSC1c1c(F)cccc1F (configuration not stated)	19.8

system: Trichoderma viride; experiment: Fungicidal activity against Trichoderma viride IAM 5061 incubated for 72 hrs followed by serial sub-cultivation for 72 hrs and measured after 72 hrs by serial dilution method; assay type: functional; conditions: not given

Compound	MFC99.5 [×10⁻² umol/ml]
O=C(Cc1nsc2ccccc12)NN1C(=O)CSC1c1c(F)cccc1F (configuration not stated)	9.9

system: Aspergillus versicolor; experiment: Fungicidal activity against Aspergillus versicolor ATCC 11730 incubated for 72 hrs followed by serial sub-cultivation for 72 hrs and measured after 72 hrs by serial dilution method; assay type: functional; conditions: not given

Compound	MFC99.5 [×10⁻² umol/ml]
O=C(Cc1nsc2ccccc12)NN1C(=O)CSC1c1c(F)cccc1F (configuration not stated)	9.9

system: Talaromyces funiculosus; experiment: Antifungal activity against Penicillium funiculosum ATCC 36839 after 72 hrs by serial dilution method; assay type: functional; conditions: ATCC 36839, 72 h

MIC [µM]	Compound
74 (≈ 30 µg/mL)	O=C(Cc1nsc2ccccc12)NN1C(=O)CSC1c1c(F)cccc1F (configuration not stated)

system: Micrococcus flavus; experiment: Bactericidal activity against Micrococcus flavus ATCC 10240 incubated for 24 hrs followed by serial sub-cultivation and measured after 24 hrs by microdilution method; assay type: functional; conditions: not given

Compound	MBC99.5 [×10⁻² umol/ml]
O=C(Cc1nsc2ccccc12)NN1C(=O)CSC1c1c(F)cccc1F (configuration not stated)	37

system: Aspergillus ochraceus; experiment: Fungicidal activity against Aspergillus ochraceus ATCC 12066 incubated for 72 hrs followed by serial sub-cultivation for 72 hrs and measured after 72 hrs by serial dilution method; assay type: functional; conditions: not given

Compound	MFC99.5 [×10⁻² umol/ml]
O=C(Cc1nsc2ccccc12)NN1C(=O)CSC1c1c(F)cccc1F (configuration not stated)	9.9

system: Staphylococcus aureus; experiment: Bactericidal activity against Staphylococcus aureus ATCC 6538 incubated for 24 hrs followed by serial sub-cultivation and measured after 24 hrs by microdilution method; assay type: functional; conditions: not given

Compound	MBC99.5 [×10⁻² umol/ml]
O=C(Cc1nsc2ccccc12)NN1C(=O)CSC1c1c(F)cccc1F (configuration not stated)	37

system: Aspergillus fumigatus; experiment: Fungicidal activity against Aspergillus fumigatus incubated for 72 hrs followed by serial sub-cultivation for 72 hrs and measured after 72 hrs by serial dilution method; assay type: functional; conditions: not given

Compound	MFC99.5 [×10⁻² umol/ml]
O=C(Cc1nsc2ccccc12)NN1C(=O)CSC1c1c(F)cccc1F (configuration not stated)	37

system: Listeria monocytogenes; experiment: Antibacterial activity against Listeria monocytogenes NCTC 7973 after 24 hrs by microdilution method; assay type: functional; conditions: NCTC 7973, 24 h

MIC [µM]	Compound
543 (≈ 220 µg/mL)	O=C(Cc1nsc2ccccc12)NN1C(=O)CSC1c1c(F)cccc1F (configuration not stated)

system: Micrococcus flavus; experiment: Antibacterial activity against Micrococcus flavus ATCC 10240 after 24 hrs by microdilution method; assay type: functional; conditions: ATCC 10240, 24 h

MIC [µM]	Compound
272 (≈ 110 µg/mL)	O=C(Cc1nsc2ccccc12)NN1C(=O)CSC1c1c(F)cccc1F (configuration not stated)

system: Bacillus cereus; experiment: Antibacterial activity against Bacillus cereus after 24 hrs by microdilution method; assay type: functional; conditions: not given

MIC [µM]	Compound
198 (≈ 80.3 µg/mL)	O=C(Cc1nsc2ccccc12)NN1C(=O)CSC1c1c(F)cccc1F (configuration not stated)

system: Aspergillus niger; experiment: Antifungal activity against Aspergillus niger ATCC 6275 after 72 hrs by serial dilution method; assay type: functional; conditions: ATCC 6275, 72 h

MIC [µM]	Compound
148 (≈ 60 µg/mL)	O=C(Cc1nsc2ccccc12)NN1C(=O)CSC1c1c(F)cccc1F (configuration not stated)

system: Bacillus cereus; experiment: Bactericidal activity against Bacillus cereus incubated for 24 hrs followed by serial sub-cultivation and measured after 24 hrs by microdilution method; assay type: functional; conditions: not given

Compound	MBC99.5 [×10⁻² umol/ml]
O=C(Cc1nsc2ccccc12)NN1C(=O)CSC1c1c(F)cccc1F (configuration not stated)	37

system: Escherichia coli; experiment: Bactericidal activity against Escherichia coli ATCC 35210 incubated for 24 hrs followed by serial sub-cultivation and measured after 24 hrs by microdilution method; assay type: functional; conditions: not given

Compound	MBC99.5 [×10⁻² umol/ml]
O=C(Cc1nsc2ccccc12)NN1C(=O)CSC1c1c(F)cccc1F (configuration not stated)	37

system: Trichoderma viride; experiment: Antifungal activity against Trichoderma viride IAM 5061 after 72 hrs by serial dilution method; assay type: functional; conditions: IAM 5061, 72 h

MIC [µM]	Compound
74 (≈ 30 µg/mL)	O=C(Cc1nsc2ccccc12)NN1C(=O)CSC1c1c(F)cccc1F (configuration not stated)
